Results as given in patent US20260166029A1, “METHODS AND SYSTEMS FOR TREATING DISEASE USING AN ATR/CHK1 SIGNALING PATHWAY INHIBITOR” (Acrivon Therapeutics, Inc., priority 2022, published 2026).
Several values for one entry are separate records, joined by “and”; a condition that tells them apart may be missing. Identical values can stand only once.

Key:
T47D = experiment: Cell Titer Glo 2.0 relative cell viability, 72 h (Example 10); format: cell-based; settings: Homo sapiens, T47D cell line, read-out: Abs IC50
Experimental: (§1) The present Example provides experimental evidence that cell lines predicted to be sensitive to a Chk1 inhibitor (e.g., prexasertib, are also sensitive to Wee1 inhibitors (e.g., adavosertib (AZD1775, MK1775) and azenosertib (Zn-C3)). Cell lines were treated with increasing doses of either prexasertib, adavosertib, or azenosertib, and relative cell viability against a DMSO control was assessed 72 h after drug treatment using Cell Titer Glo 2.0 (Promega) and a SpectraMax microplate reader. The results are shown in FIGS. 19A-19C. Error bars represent standard deviations from quadruplicate samples.

HeLa = experiment: as above; format: cell-based; settings: Homo sapiens, HeLa cell line, read-out: Abs IC50
Experimental: as §1

BxPC3 = experiment: as above; format: cell-based; settings: Homo sapiens, BXPC-3, BxPC3 cell line, read-out: Abs IC50
Experimental: as §1

OVCAR3 = experiment: as above; format: cell-based; settings: Homo sapiens, OVCAR-3, OVCAR3 cell line, read-out: Abs IC50
Experimental: as §1

A375 = experiment: as above; format: cell-based; settings: Homo sapiens, A-375, A375 cell line, read-out: Abs IC50
Experimental: as §1

A2780 = experiment: as above; format: cell-based; settings: Homo sapiens, A2780 cell line, read-out: Abs IC50
Experimental: as §1

PC3 = experiment: as above; format: cell-based; settings: Homo sapiens, PC-3, PC3 cell line, read-out: Abs IC50
Experimental: as §1

[1] = tested on: head and neck, anal, and ovarian cancer; settings: cited from earlier work
[2] = tested on: metastatic high-grade serous ovarian cancer; experiment: Observed response in phase 2 clinical trials, patients with FFPE pre-treatment biopsies (Example 5); format: in vivo, human; set-up: key to RECIST response category: SD: stable disease;; PR: partial response;; PD: progressive disease;; settings: for RECIST Responder: RECIST response = PR or CR
Text: Biopsy samples from several independent clinical phase 2 studies were merged for this analysis based on availability. Study JTJN (NCT03414047) was a large multicenter, multi-country, non-randomized, parallel cohort, Phase 2 study of prexasertib in subjects with advanced stage, high grade serous ovarian, primary peritoneal, or fallopian tube cancer. Several single-center phase 2 studies sponsored by NCI of prexasertib in BRCA ½ wild-type or BRCA ½ mutant recurrent high-grade serous ovarian cancer (NCT02203513) provided additional FFPE samples; see Lee, Lancet Oncol. 19(2): 207-215 (2018). To evaluate whether a provided Response-Predictive Signature can successfully predict patient responders, sections of pre-treatment tumor biopsies were stained blinded to treatment outcome using antibodies against three biomarkers (biomarker 1 (BM1) Ser296 phosphorylated Chk1, biomarker 2 (BM2) Ser473 phosphorylated Kap1, and biomarker 3 (BM3) total cyclin E1) and imaged using immunofluorescence microscopy. The tumor samples were additionally stained using an antibody against cytokeratin in order to identify and distinguish tumor cells of interest from the surrounding stroma and stained with DAPI to identify cell nuclei.
The Response-Predictive Signature was evaluated by comparing predicted response to prexasertib of each patient to observed response in the clinical trials (Table 8, FIG. 15). Observed clinical trial responses were provided separately to the third party biostatistician. They were classified according to RECIST criteria as complete response (CR), partial response (PR), stable disease (SD), or progressive disease (PD). Additionally, the observed treatment outcome was quantified based on the maximum fractional change in tumor volume after treatment (Table 8, FIG. 15). […] Clinical RECIST responder rate (PR or CR) among those predicted by the Response-Predictive Signature to be non-responders was 5%. Clinical RECIST responder rate (PR or CR) among those predicted by the Response-Predictive Signature to be responders was 58%. This 58% represented a substantial responder-enrichment over the overall unenriched response rate of 25%.

ST1301 ovarian PDX tumor = experiment: Response to prexasertib treatment in ovarian PDX tumor model (Example 3); format: in vivo
Text: (§2) To evaluate whether the provided Response-Predictive Signature can predict response to prexasertib treatment, the predicted response for each PDX model was compared to an experimentally determined response to prexasertib treatment for the same PDX model. The experimentally measured response was quantified as follows: if a treated tumor reduced in size/volume, then the percent regression compared to an initial volume of a treated tumor was provided, if a treated tumor increased in size/volume, then a percent ratio of the treated tumor's growth was divided by control tumor (i.e., untreated tumor) growth (d[T/C]). Negative values for regression percentage indicate response to treatment with prexasertib, while positive values indicate continued growth and non-response to prexasertib treatment. The experimentally measured response was further categorized as complete regression (near −100% regression), partial regression (−50% to −100% regression), stasis (<20% median tumor growth to −50% regression), and growth (>20% median tumor growth).

ST1949 ovarian PDX tumor = experiment: as above; format: in vivo
Text: as §2

ST022 ovarian PDX tumor = experiment: as above; format: in vivo
Text: as §2

ST416 ovarian PDX tumor = experiment: as above; format: in vivo
Text: as §2

ST255 ovarian PDX tumor = experiment: as above; format: in vivo
Text: as §2

ST025 ovarian PDX tumor = experiment: as above; format: in vivo
Text: as §2

ST1526 ovarian PDX tumor = experiment: as above; format: in vivo
Text: as §2

[3] = tested on: ST1986B ovarian PDX tumor; experiment: as above; format: in vivo
Text: as §2

[4] = individual patients predicted non-responder (NR)
[5] = individual patients predicted responder (R)

IC50 (T47D): > 10000 nM
IC50 (HeLa): 15 nM
IC50 (BxPC3): 1.4 nM
IC50 (OVCAR3): 0.9 nM
IC50 (A375): 1.8 nM
IC50 (A2780): > 10000 nM
IC50 (PC3): > 10000 nM
SMILES: COc1cccc(OCCCN)c1-c1cc(Nc2cnc(C#N)cn2)n[nH]1 [prexasertib, 5-(5-(2-(3-aminopropoxy)-6-methoxyphenyl)-1H-pyrazol-3-ylamino)pyrazine-2-carbonitrile]
Response rates in clinical trials ([1]; across cancers, including head and neck, anal, and ovarian cancer, single agent): 5-20%
Side effects ([1]; patients, reversible, common, hematological, mechanism-based myelosuppression): neutropenia, thrombocytopenia, and anemia
overall unenriched response rate ([2]; all patients of the FFPE cohort): 25%
Clinical RECIST responder rate (PR or CR) ([2]; among those predicted by the Response-Predictive Signature to be non-responders): 5%
Clinical RECIST responder rate (PR or CR) ([2]; among those predicted by the Response-Predictive Signature to be responders): 58%
Best Tumor Shrinkage (fraction from baseline) [2, 4]: 0.048 and 0.159 and −0.037 and −0.118 (2×) and 0.353 and −0.024 and −0.077 and 0 (2×) and 0.342 and 0.105 and −0.192 and 0.146 and −0.012 and 0.015 and 0.24 and 0.1 and 0.04 and 0.01
RECIST response category [2, 4]: SD (16×) and PD (3×) and PR
RECIST Responder [2, 4]: FALSE (19×) and TRUE
Best Tumor Shrinkage (fraction from baseline) [2, 5]: 0.146 and 0 and 0.441 and 0.52 and 0.584 and −0.287 and 0.038 and 0.492 and 0.59 and 0.35 and 0.14 and 0.444
RECIST response category [2, 5]: SD (4×) and PR (7×) and PD
RECIST Responder [2, 5]: FALSE (5×) and TRUE (7×)
Response type (ST1301 ovarian PDX tumor): S (S = stasis)
Best d[T/C], or Regression (ST1301 ovarian PDX tumor; negative = regression): 1.2%
Response type (ST1949 ovarian PDX tumor): G (G = growth)
Best d[T/C], or Regression (ST1949 ovarian PDX tumor; negative = regression): 56%
Response type (ST022 ovarian PDX tumor): G (G = growth)
Best d[T/C], or Regression (ST022 ovarian PDX tumor; negative = regression): 21.1%
Response type (ST416 ovarian PDX tumor): S (S = stasis)
Best d[T/C], or Regression (ST416 ovarian PDX tumor; negative = regression): −9%
Response type (ST255 ovarian PDX tumor): S (S = stasis)
Best d[T/C], or Regression (ST255 ovarian PDX tumor; negative = regression): −8.9%
Response type (ST025 ovarian PDX tumor): G (G = growth)
Best d[T/C], or Regression (ST025 ovarian PDX tumor; negative = regression): 48.9%
Response type (ST1526 ovarian PDX tumor): PR (PR = partial regression)
Best d[T/C], or Regression (ST1526 ovarian PDX tumor; negative = regression): −90%
Response type [3]: G (G = growth)
Best d[T/C], or Regression ([3]; negative = regression): 35.1%
